Literature values as cited in US20110237925A1, “MICRONEEDLE ARRAY CHIP, DEVICE AND PATCH FOR TRANSDERMAL DRUG DELIVERY UTILIZING THE SAME, AND PREPARATION METHOD THEROF” (priority 2010, published 2011).

Conditions: solid silicon microneedle array prepared through MEMS technology

In the case of O=C(O)CN(CC(=O)O)Cc1cc2c(cc1O)Oc1cc(O)c(CN(CC(=O)O)CC(=O)O)cc1C21OC(=O)c2ccccc21 [calcein], the “increase of the transdermal permeability” value is listed as “four orders of magnitude”.
